# Experimental data as given in US20220370464A1, “COMPOSITIONS AND METHODS OF TREATING OR PREVENTING OCULAR INFECTIONS WITH FILOCICLOVIR” (Microbiotix, Inc., priority 2019, published 2022).
# Read-outs that look alike come from different tables or passages of the source.
# What was measured:
# VZV = conditions: α Herpesvirus, cited from earlier work
# [1] = system: panel of ocular adenovirus types (Ad3, Ad4, Ad5, Ad7a, Ad8, Ad19/64, and Ad37); assay: Plaque reduction antiviral IC50 assay, whole panel of ocular adenovirus types; format: cell-based, adenovirus Species B, C, D, and E; conditions: unidentified adenovirus
# Method: (§1) The effectiveness of filociclovir to inhibit a number of adenovirus strains associated with conjunctivitis were tested in an in vitro assay. To determine the in vitro IC50 concentrations, i.e., the concentration of filociclovir that inhibits adenovirus plaque formation by 50%, filociclovir and cidofovir (CDV) were tested against a panel of 7 ocular types of adenovirus.
# (§2) 42 A549 24-well multiplates (1 per each drug and each virus strain) were prepared. 7 adenovirus serotypes were tested at a time. Virus dilutions from known titer of stock viruses (approx. 100 PFU/0.1 ml) were prepared with AdV3 L, AdV4 H, AdV5 M, AdV7a J, AdV8 E, AdV 19/64 K, and AdV37 ATCC. 0.1 ml (containing approx. 100 PFU) of each of the 7 viruses were plated onto all 24 wells of an A549 multiplate and incubated at 37° C. in a 5% CO2 water-vapor atmosphere for 3 hours.
# (§3) Dilutions of filociclovir and cidofovir were prepared at 400, 40, 4.0, 0.4, 0.04, and 0.004 μM in 2× nutrient tissue culture media, following the dilution protocol: 7.5 ml of each of filociclovir and cidofovir dilution was added to a tube and 22.5 ml of methylcellulose in outgrowth medium (OG) was then added to each tube. 1 ml of each filociclovir and cidofovir dilutions was added to an additional 15 ml tube and 3 ml of OG was added to each tube. This was the overlay for the Adv8 plates. Normal methylcellulose overlay medium without any drug was used for the control wells for each plate.
# (§4) For each virus plate, 3 wells were overlaid with each of the 6 final filociclovir and cidofovir concentrations (100, 10, 1.0, 0.1, 0.01, and 0.001 μM) and 6 wells with the control media. Plates were incubated at 37° C. in a 5% CO2 water-vapor atmosphere until plaques were visible. When plaques became visible, plates were stained with gentian violet and plaques were counted at 25λ using a dissecting microscope. The IC50 concentrations were determined from Fitted Line Plot regression analysis using Minitab. All assays were performed in triplicate.
# AdV7a = assay: Plaque reduction antiviral IC50 assay in A549, AdV7a; format: cell-based, adenovirus 7a; conditions: unidentified adenovirus
# Method: as §1, §2, §3, §4
# AdV64 = assay: Plaque reduction antiviral IC50 assay in A549, AdV64; format: cell-based, adenovirus 19/64; conditions: unidentified adenovirus
# Method: as §1, §2, §3, §4
# AdV8 = assay: Plaque reduction antiviral IC50 assay in A549, AdV8; format: cell-based, adenovirus 8
# Method: as §1, §2, §3, §4
# AdV6 = assay: Immunofluorescence assay of AdV6-infected A549 cells (DBP and hexon staining); format: cell-based, adenovirus 6; conditions: 27 hours post-infection
# Method: Human A549 cells on glass coverslips in 6-well plates were infected at an MOI of 5 PFU/cell with either AdV5 or AdV6 or were mock-infected. After 1 hour, filociclovir was added to a final concentration of 40, 10, 4, or 0 μM. At 27 hours post-infection, the A549 cells were fixed in paraformaldehyde (3.7% in PBS) and permeabilized with methanol. Cells were stained for the Adenovirus DNA-binding protein (DBP; green staining in images) and adenovirus hexon (red staining in images). DBP staining will be […] and uniform during early AdV infection (prior to AdV DNA replication). DBP associates with replication centers as the infection progresses. The replication centers are initially small “dots” (each dot results from one incoming AdV genome). The replication centers will expand and “multiply” as DNA replication takes place. The nuclei become enlarged and misshapen as infection progresses. AdV hexon, the most abundant component of the AdV viral capsid, is not expressed until after DNA replication is taking place and is therefore considered to be a “late” AdV protein.
# AdV3 = assay: Plaque reduction antiviral IC50 assay in A549, AdV3; format: cell-based, adenovirus 3; conditions: Human mastadenovirus B
# Method: as §1, §2, §3, §4
# AdV5 = assay: Plaque reduction antiviral IC50 assay in A549, AdV5; format: cell-based, adenovirus 5; conditions: Human mastadenovirus C
# Method: as §1, §2, §3, §4
# AdV4 = assay: Plaque reduction antiviral IC50 assay in A549, AdV4; format: cell-based, adenovirus 4; conditions: Human mastadenovirus E
# Method: as §1, §2, §3, §4
# AdV37 = assay: Plaque reduction antiviral IC50 assay in A549, AdV37; format: cell-based, adenovirus 37; conditions: unidentified adenovirus
# Method: as §1, §2, §3, §4
# AdV 7 = assay: Antiviral EC50 against AdV 7 (method not given); format: cell-based, adenovirus 7; conditions: Human mastadenovirus B; AdV 7, summary table
# [2] = read-out: mean IC50 concentrations across the panel (upper bound)
# [3] = read-out: range of mean IC50 concentrations across the panel
compound,measurement,setting,value
"Nc1nc2c(ncn2/C=C2/CC2(CO)CO)c(=O)[nH]1 [Filociclovir, 2-amino-9-{(Z)-[2,2-bis(hydroxymethyl)cyclopropylidene]methyl}-3,9-dihydro-6H-purin-6-one]",EC50,VZV; listed as filociclovir,≤ 10 µM
same,EC50,VZV,1.5 ± 1.6 µM
same,IC50,[1]; [2],< 5 µM
same,IC50,[1]; [3],0.496 to 4.68 µM
same,IC50,AdV7a; read-out: Mean IC50,2.12 µM
same,IC50,AdV7a; read-out: Median IC50,0.769 µM
same,IC50,AdV64; read-out: Mean IC50,1.86 µM
same,IC50,AdV64; read-out: Median IC50,0.424 µM
same,IC50,AdV8; read-out: Mean IC50,0.496 µM
same,IC50,AdV8; read-out: Median IC50,0.485 µM
same,hexon-positive cells,"AdV6; AdV6, A549, 4 μM",Some hexon-positive cells
same,hexon-positive cells,"AdV6; AdV6, A549, 10 μM",extremely few hexon-positive cells
same,hexon-positive cells,"AdV6; AdV6, A549, 40 μM",No hexon-positive cells
same,IC50,AdV3; read-out: Mean IC50,0.778 µM
same,IC50,AdV3; read-out: Median IC50,0.756 µM
same,IC50,AdV5; read-out: Mean IC50,4.68 µM
same,IC50,AdV5; read-out: Median IC50,4.62 µM
same,IC50,AdV4; read-out: Mean IC50,4.31 µM
same,IC50,AdV4; read-out: Median IC50,4.24 µM
same,IC50,AdV37; read-out: Mean IC50,3.53 µM
same,IC50,AdV37; read-out: Median IC50,4.52 µM
same,EC50,AdV 7,1 µM
"Nc1ccn(C[C@@H](CO)OCP(=O)(O)O)c(=O)n1 [CDV, cidofovir, reference compound]",IC50,[1]; [2],< 31 µM
same,IC50,[1]; [3],0.487 to 30.3 µM
same,IC50,AdV7a; read-out: Mean IC50,1.81 µM
same,IC50,AdV7a; read-out: Median IC50,0.617 µM
same,IC50,AdV64; read-out: Mean IC50,4.09 µM
same,IC50,AdV64; read-out: Median IC50,4.94 µM
same,IC50,AdV8; read-out: Mean IC50,0.487 µM
same,IC50,AdV8; read-out: Median IC50,0.474 µM
same,IC50,AdV3; read-out: Mean IC50,5.78 µM
same,IC50,AdV3; read-out: Median IC50,6.02 µM
same,IC50,AdV5; read-out: Mean IC50,30.3 µM
same,IC50,AdV5; read-out: Median IC50,38.8 µM
same,IC50,AdV4; read-out: Mean IC50,8.71 µM
same,IC50,AdV4; read-out: Median IC50,9.43 µM
same,IC50,AdV37; read-out: Mean IC50,3.96 µM
same,IC50,AdV37; read-out: Median IC50,0.382 µM
